In patent US20260224566A1, “Obicetrapib and Ezetimibe Combination Treatment and Fixed Dose Pharmaceutical Compositions” (NewAmsterdam Pharma B.V., priority 2023, published 2026):

Tests used:
[1] = TA-8995-04, healthy volunteers; cited from earlier work
[2] = system: participants currently receiving high-intensity statin therapy; assay: ROSE2 Phase 2b clinical trial: LDL-C and other lipid efficacy endpoints; assay type: in vivo, human
Description: The primary objective of this study is to evaluate the effect of obicetrapib 10 mg+ezetimibe 10 mg combination therapy compared with placebo, when used as an adjunct to high-intensity statin therapy, on LDL-C at Day 84.
The secondary objectives of this study include the following, in hierarchical order: • To evaluate the effect of obicetrapib 10 mg monotherapy compared with placebo, when used as an adjunct to high-intensity statin therapy, on LDL-C at Day 84; • To evaluate the effect of obicetrapib 10 mg+ezetimibe 10 mg combination therapy compared with placebo, when used as an adjunct to high-intensity statin therapy, on ApoB at Day 84; and • To evaluate the effect of obicetrapib 10 mg monotherapy compared with placebo, when used as an adjunct to high-intensity statin therapy, on ApoB at Day 84.
This study will be a placebo-controlled, double-blind, randomized, Phase 2 study to evaluate the efficacy, safety, and tolerability of obicetrapib 10 mg, both in combination with ezetimibe 10 mg and as monotherapy, as an adjunct to high-intensity statin therapy. This study will take place at approximately 20 sites in the United States.
Up to 2 weeks after the Screening Visit, participants will return to the site on Day 1 (Visit 2) and confirm study eligibility before being randomized and beginning treatment. Approximately 114 eligible participants (38 participants per treatment group) will be randomized in a 1:1:1 ratio to 1 of the following treatment groups: • Combination therapy: Obicetrapib 10 mg+ezetimibe 10 mg (administered as one 10 mg obicetrapib tablet and one 10 mg ezetimibe capsule); • Obicetrapib monotherapy: Obicetrapib 10 mg (administered as one 10 mg obicetrapib tablet and 1 placebo capsule); or. • Placebo (administered as 1 placebo tablet and 1 placebo capsule).
During the 12-week Treatment Period, the assigned study drugs will be administered by the participants orally with water, once daily on Day 1 to Day 84 at approximately the same time each morning. Participants will return to the site on Day 28 (±2 days), Day 84 (±2 days), and Day 112 (±2 days) for efficacy, safety, and pharmacokinetic (PK) assessments. Participants, Investigators, the Clinical Research Organization (CRO), and the Sponsor will be blinded to all lipid results from Day 1 (Visit 2) for the first participant until all enrolled participants complete the Day 84 (End of Treatment) visit or are withdrawn from the study, in order to protect blinding to treatment assignment.
The primary efficacy endpoint is the percent change from Day 1 to Day 84 in LDL-C for the obicetrapib 10 mg+ezetimibe 10 mg combination treatment group compared with the placebo group.
The secondary efficacy endpoints include the following, in hierarchical order: • Percent change from Day 1 to Day 84 in LDL-C for the obicetrapib 10 mg monotherapy. • treatment group compared with the placebo group; • Percent change from Day 1 to Day 84 in ApoB for the obicetrapib 10 mg+ezetimibe 10 mg • combination treatment group compared with the placebo group; and • Percent change from Day 1 to Day 84 in ApoB for the obicetrapib 10 mg monotherapy treatment group compared with the placebo group.
The exploratory efficacy endpoints include the following: • Percent change from Day 1 to Day 84 in non-HDL-C, VLDL-C, HDL-C, TG, ApoE, Lp(a), and HDL-ApoE for the obicetrapib 10 mg+ezetimibe 10 mg combination treatment group compared with the placebo group and for the obicetrapib 10 mg monotherapy treatment group compared with the placebo group; and • Proportion of participants at Day 84 that achieve LDL-C <2.6 mmol/L (<100 mg/dL), LDL-C <1.8 mmol/L (<70 mg/dL), and LDL-C <1.3 mmol/L (<50 mg/dL) for the obicetrapib 10 mg+ezetimibe 10 mg combination treatment group compared with the placebo group and for the obicetrapib 10 mg monotherapy treatment group compared with the placebo group. […]

[3] = Exploratory Population, 10 mg each drug
[4] = mITT Population, 10 mg each drug

CCOC(=O)N1c2ccc(C(F)(F)F)cc2[C@@H](N(Cc2cc(C(F)(F)F)cc(C(F)(F)F)c2)c2ncc(OCCCC(=O)O)cn2)C[C@H]1CC [obicetrapib, {4-[(2-{[3,5-bis(trifluoromethyl)benzyl] [(2R,4S)-1-(ethoxycarbonyl)-2-ethyl-6-(trifluoromethyl)-1,2,3,4-tetrahydroquinolin-4-yl]amino}pyrimidin-5-yl)oxy]butanoic acid}]
effect on the QTcF [1]: no effect
ApoB Change from Baseline to Day 28, Maximum [2, 3]: -1 mg/dL
ApoB Change from Baseline to Day 28, Median [2, 3]: -23.0 mg/dL
ApoB Change from Baseline to Day 28, Minimum [2, 3]: -55 mg/dL
ApoB Change from Baseline to Day 84, Maximum [2, 3]: 19 mg/dL
ApoB Change from Baseline to Day 84, Minimum [2, 3]: -52 mg/dL
ApoB Percent Change from Baseline to Day 28, Maximum [2, 3]: −3.0%
ApoB Percent Change from Baseline to Day 28, Mean [2, 3]: −26.00%
ApoB Percent Change from Baseline to Day 28, Median [2, 3]: −26.00%
ApoB Percent Change from Baseline to Day 28, Minimum [2, 3]: −47.4%
ApoB Percent Change from Baseline to Day 84, Maximum [2, 3]: 27.1%
ApoB Percent Change from Baseline to Day 84, Minimum [2, 3]: −44.8%
LDL-C Change from Baseline to Day 28, Maximum [2, 3]: -11 mg/dL
LDL-C Change from Baseline to Day 28, Mean [2, 3]: -43.0 mg/dL
LDL-C Change from Baseline to Day 28, Median [2, 3]: -45.0 mg/dL
LDL-C Change from Baseline to Day 28, Minimum [2, 3]: -87 mg/dL
LDL-C Change from Baseline to Day 84, Maximum [2, 3]: 24 mg/dL
LDL-C Change from Baseline to Day 84, Minimum [2, 3]: -112 mg/dL
LDL-C Percent Change from Baseline to Day 28, Maximum [2, 3]: −10.4%
LDL-C Percent Change from Baseline to Day 28, Minimum [2, 3]: −82.0%
LDL-C Percent Change from Baseline to Day 84, Maximum [2, 3]: 22.6%
LDL-C Percent Change from Baseline to Day 84, Minimum [2, 3]: −78.4%
Lp(a) Change from Baseline to Day 84, Maximum [2, 3]: 3.0 nmol/L
ApoB at Day 28, Maximum [2, 3]: 110 mg/dL
ApoB at Day 28, Mean [2, 3]: 65.4 mg/dL
ApoB at Day 28, Median [2, 3]: 64.5 mg/dL
ApoB at Day 28, Minimum [2, 3]: 32 mg/dL
LDL-C at Day 28, Maximum [2, 3]: 136 mg/dL
LDL-C at Day 28, Mean [2, 3]: 57.6 mg/dL
LDL-C at Day 28, Median [2, 3]: 51.5 mg/dL
LDL-C at Day 28, Minimum [2, 3]: 16 mg/dL
ApoB at Day 84, Maximum [2, 3]: 123 mg/dL
ApoB at Day 84, Mean [2, 3]: 69.1 mg/dL
ApoB at Day 84, Median [2, 3]: 65.0 mg/dL
ApoB at Day 84, Minimum [2, 3]: 30 mg/dL
LDL-C at Day 84, Maximum [2, 3]: 148 mg/dL
LDL-C at Day 84, Mean [2, 3]: 60.7 mg/dL
LDL-C at Day 84, Median [2, 3]: 55.5 mg/dL
LDL-C at Day 84, Minimum [2, 3]: 21 mg/dL
Lp(a) at Day 84, Maximum [2, 3]: 327.7 nmol/L
Lp(a) at Day 84, Mean [2, 3]: 74.75 nmol/L
Lp(a) at Day 84, Median [2, 3]: 20.85 nmol/L
Lp(a) at Day 84, Minimum [2, 3]: 2.8 nmol/L
median reduction in LDL-C ([2]; ROSE2, obicetrapib 10 mg with or without ezetimibe 10 mg, adjunct to high-intensity statin): 39%
ApoB Change from Baseline to Day 28, Maximum [2, 4]: 50 mg/dL
ApoB Change from Baseline to Day 28, Median [2, 4]: -20.0 mg/dL
ApoB Change from Baseline to Day 28, Minimum [2, 4]: -85 mg/dL
ApoB Change from Baseline to Day 84, Maximum [2, 4]: 67 mg/dL
ApoB Change from Baseline to Day 84, Minimum [2, 4]: -52 mg/dL
ApoB Percent Change from Baseline to Day 28, Maximum [2, 4]: 64.9%
ApoB Percent Change from Baseline to Day 28, Minimum [2, 4]: −62.0%
ApoB Percent Change from Baseline to Day 84, Maximum [2, 4]: 100.0%
ApoB Percent Change from Baseline to Day 84, Mean [2, 4]: −9.50%
ApoB Percent Change from Baseline to Day 84, Minimum [2, 4]: −44.8%
LDL-C Change from Baseline to Day 28, Maximum [2, 4]: 64 mg/dL
LDL-C Change from Baseline to Day 28, Median [2, 4]: -35.0 mg/dL
LDL-C Change from Baseline to Day 28, Minimum [2, 4]: -121 mg/dL
LDL-C Change from Baseline to Day 84, Maximum [2, 4]: 98 mg/dL
LDL-C Change from Baseline to Day 84, Minimum [2, 4]: -112 mg/dL
LDL-C Percent Change from Baseline to Day 28, Maximum [2, 4]: 70.3%
LDL-C Percent Change from Baseline to Day 28, Minimum [2, 4]: −82.0%
LDL-C Percent Change from Baseline to Day 84, Maximum [2, 4]: 161.5%
LDL-C Percent Change from Baseline to Day 84, Minimum [2, 4]: −78.4%
Lp(a) Change from Baseline to Day 84, Maximum [2, 4]: 22.0 nmol/L
Lp(a) Change from Baseline to Day 84, Median [2, 4]: -4.50 nmol/L
ApoB at Day 28, Maximum [2, 4]: 140 mg/dL
ApoB at Day 28, Mean [2, 4]: 73.4 mg/dL
ApoB at Day 28, Median [2, 4]: 66.0 mg/dL
ApoB at Day 28, Minimum [2, 4]: 32 mg/dL
LDL-C at Day 28, Maximum [2, 4]: 169 mg/dL
LDL-C at Day 28, Mean [2, 4]: 70.3 mg/dL
LDL-C at Day 28, Median [2, 4]: 56.0 mg/dL
LDL-C at Day 28, Minimum [2, 4]: 16 mg/dL
ApoB at Day 84, Maximum [2, 4]: 147 mg/dL
ApoB at Day 84, Mean [2, 4]: 82.4 mg/dL
ApoB at Day 84, Median [2, 4]: 72.0 mg/dL
ApoB at Day 84, Minimum [2, 4]: 30 mg/dL
LDL-C at Day 84, Maximum [2, 4]: 196 mg/dL
LDL-C at Day 84, Mean [2, 4]: 82.7 mg/dL
LDL-C at Day 84, Median [2, 4]: 65.0 mg/dL
LDL-C at Day 84, Minimum [2, 4]: 21 mg/dL
Lp(a) at Day 84, Maximum [2, 4]: 327.7 nmol/L
Lp(a) at Day 84, Mean [2, 4]: 77.96 nmol/L
Lp(a) at Day 84, Median [2, 4]: 26.25 nmol/L
Lp(a) at Day 84, Minimum [2, 4]: 2.8 nmol/L
